Literature values, collected in patent US6380174B1, “Slime-removing composition for paper manufacture and method of controlling slime using the same” (SK Corporation, priority 1999, dated 2002).

System: slime-causing microorganisms

Q: With `N#CC(Br)(Br)C(N)=O` [DBNPA, 2,2-dibromo-3-nitrilepropionamide] as the compound, how does the “amount required for early sterilization” value (after 3 hours) read?
A: 50 ppm

Q: What about the “amount necessary for sufficient sterilizing activity” value (after 24 hours) of the same compound?
A: 5 ppm
